Results reported in patent US20260130395A1, “Water Dispersible Botanical Compositions” (Aquila Black Limited, priority 2021, published 2026).

Assay: Stability of cannabinoid compounds and Vitamin E components in Beverage 1 (AB White) by LCMSMS
Assay type: physicochemical
Conditions: for Stability of Plant-Derived Cannabinoid Compounds in AB White, 8° C.: AB White stored at 8° C.; for Stability of Plant-Derived Cannabinoid Compounds in AB White, 21-25° C.: AB White stored at 21-25° C.

CCCCCc1cc(O)c2c(c1)OC(C)(C)c1ccc(C)cc1-2 [CBN, cannabinol]
Stability of Plant-Derived Cannabinoid Compounds in AB White, 8° C. (29 days): 2.76 µg/mL | Stability of Plant-Derived Cannabinoid Compounds in AB White, 8° C. (30 days): 2.78 µg/mL | Stability of Plant-Derived Cannabinoid Compounds in AB White, 8° C. (60 days): 2.68 µg/mL | Stability of Plant-Derived Cannabinoid Compounds in AB White, 8° C. (90 days): 2.74 µg/mL | Stability of Plant-Derived Cannabinoid Compounds in AB White, 8° C. (120 days): 2.72 µg/mL | Stability of Plant-Derived Cannabinoid Compounds in AB White, 8° C. (150 days): 2.69 µg/mL | Stability of Plant-Derived Cannabinoid Compounds in AB White, 8° C. (180 days): 2.77 µg/mL | Stability of Plant-Derived Cannabinoid Compounds in AB White, 8° C. (210 days): 2.75 µg/mL | Stability of Plant-Derived Cannabinoid Compounds in AB White, 8° C. (240 days): 2.70 µg/mL | Stability of Plant-Derived Cannabinoid Compounds in AB White, 8° C. (270 days): 2.75 µg/mL | Stability of Plant-Derived Cannabinoid Compounds in AB White, 8° C. (300 days): 2.71 µg/mL | Stability of Plant-Derived Cannabinoid Compounds in AB White, 8° C. (330 days): 2.75 µg/mL | Stability of Plant-Derived Cannabinoid Compounds in AB White, 8° C. (360 days): 2.68 µg/mL | Stability of Plant-Derived Cannabinoid Compounds in AB White, 8° C. (390 days): 2.67 µg/mL | Stability of Plant-Derived Cannabinoid Compounds in AB White, 8° C. (420 days): 2.70 µg/mL | Stability of Plant-Derived Cannabinoid Compounds in AB White, 8° C. (450 days): 2.70 µg/mL | Stability of Plant-Derived Cannabinoid Compounds in AB White, 8° C. (480 days): 2.66 µg/mL | Stability of Plant-Derived Cannabinoid Compounds in AB White, 8° C. (510 days): 2.60 µg/mL | Stability of Plant-Derived Cannabinoid Compounds in AB White, 8° C. (540 days): 2.56 µg/mL | Stability of Plant-Derived Cannabinoid Compounds in AB White, 8° C. (570 days): 2.56 µg/mL | Stability of Plant-Derived Cannabinoid Compounds in AB White, 21-25° C. (0 days): 2.79 µg/mL | Stability of Plant-Derived Cannabinoid Compounds in AB White, 21-25° C. (1 days): 2.79 µg/mL | Stability of Plant-Derived Cannabinoid Compounds in AB White, 21-25° C. (2 days): 2.81 µg/mL | Stability of Plant-Derived Cannabinoid Compounds in AB White, 21-25° C. (3 days): 2.73 µg/mL | Stability of Plant-Derived Cannabinoid Compounds in AB White, 21-25° C. (5 days): 2.80 µg/mL | Stability of Plant-Derived Cannabinoid Compounds in AB White, 21-25° C. (8 days): 2.71 µg/mL | Stability of Plant-Derived Cannabinoid Compounds in AB White, 21-25° C. (9 days): 2.78 µg/mL | Stability of Plant-Derived Cannabinoid Compounds in AB White, 21-25° C. (10 days): 2.77 µg/mL | Stability of Plant-Derived Cannabinoid Compounds in AB White, 21-25° C. (11 days): 2.80 µg/mL | Stability of Plant-Derived Cannabinoid Compounds in AB White, 21-25° C. (12 days): 2.75 µg/mL | Stability of Plant-Derived Cannabinoid Compounds in AB White, 21-25° C. (15 days): 2.81 µg/mL | Stability of Plant-Derived Cannabinoid Compounds in AB White, 21-25° C. (16 days): 2.75 µg/mL | Stability of Plant-Derived Cannabinoid Compounds in AB White, 21-25° C. (17 days): 2.70 µg/mL | Stability of Plant-Derived Cannabinoid Compounds in AB White, 21-25° C. (18 days): 2.78 µg/mL | Stability of Plant-Derived Cannabinoid Compounds in AB White, 21-25° C. (19 days): 2.73 µg/mL | Stability of Plant-Derived Cannabinoid Compounds in AB White, 21-25° C. (22 days): 2.69 µg/mL | Stability of Plant-Derived Cannabinoid Compounds in AB White, 21-25° C. (23 days): 2.68 µg/mL | Stability of Plant-Derived Cannabinoid Compounds in AB White, 21-25° C. (24 days): 2.79 µg/mL | Stability of Plant-Derived Cannabinoid Compounds in AB White, 21-25° C. (25 days): 2.75 µg/mL | Stability of Plant-Derived Cannabinoid Compounds in AB White, 21-25° C. (26 days): 2.69 µg/mL | Stability of Plant-Derived Cannabinoid Compounds in AB White, 21-25° C. (29 days): 2.75 µg/mL | Stability of Plant-Derived Cannabinoid Compounds in AB White, 21-25° C. (30 days): 2.72 µg/mL | Stability of Plant-Derived Cannabinoid Compounds in AB White, 21-25° C. (60 days): 2.63 µg/mL | Stability of Plant-Derived Cannabinoid Compounds in AB White, 21-25° C. (90 days): 2.66 µg/mL | Stability of Plant-Derived Cannabinoid Compounds in AB White, 21-25° C. (120 days): 2.67 µg/mL | Stability of Plant-Derived Cannabinoid Compounds in AB White, 21-25° C. (150 days): 2.77 µg/mL | Stability of Plant-Derived Cannabinoid Compounds in AB White, 21-25° C. (180 days): 2.68 µg/mL | Stability of Plant-Derived Cannabinoid Compounds in AB White, 21-25° C. (210 days): 2.74 µg/mL | Stability of Plant-Derived Cannabinoid Compounds in AB White, 21-25° C. (240 days): 2.71 µg/mL | Stability of Plant-Derived Cannabinoid Compounds in AB White, 21-25° C. (270 days): 2.67 µg/mL | Stability of Plant-Derived Cannabinoid Compounds in AB White, 21-25° C. (300 days): 2.73 µg/mL | Stability of Plant-Derived Cannabinoid Compounds in AB White, 21-25° C. (330 days): 2.75 µg/mL | Stability of Plant-Derived Cannabinoid Compounds in AB White, 21-25° C. (360 days): 2.67 µg/mL | Stability of Plant-Derived Cannabinoid Compounds in AB White, 21-25° C. (390 days): 2.66 µg/mL | Stability of Plant-Derived Cannabinoid Compounds in AB White, 21-25° C. (420 days): 2.62 µg/mL | Stability of Plant-Derived Cannabinoid Compounds in AB White, 21-25° C. (450 days): 2.61 µg/mL | Stability of Plant-Derived Cannabinoid Compounds in AB White, 21-25° C. (480 days): 2.57 µg/mL | Stability of Plant-Derived Cannabinoid Compounds in AB White, 21-25° C. (510 days): 2.66 µg/mL | Stability of Plant-Derived Cannabinoid Compounds in AB White, 21-25° C. (540 days): 2.63 µg/mL | Stability of Plant-Derived Cannabinoid Compounds in AB White, 21-25° C. (570 days): 2.56 µg/mL
